Laboratory results published in US5968526A, “T cell epitopes of the major allergens from Dermatophagoides (house dust mite)” (Immulogic Pharamaceutical Corporation, priority 1995, dated 1999).

Each substance was assayed on T cell lines primed in vitro to Der p I (assay: secondary proliferation of Der p I-primed T cell lines (Examples V, VII, XI)). Conditions: 33 positive experiments; FIG. 13.
Assay type: cell-based, human
Experimental: 10^7 PBMC from individual 543 were cultured in 10 ml RPMI-1640 containing 5% pooled human AB serum and supplemented with glutamine, penicillin, streptomycin and HEPES buffer in the presence of 20 μg/ml purified native Der p I/ml at 37° C. for 7 days. Viable cells were then purified by Ficoll-Hypaque centrifugation and cultured for 2 additional weeks in RPMI-1640/5% AB serum containing 5 units recombinant human IL-2/ml and 5 units recombinant human IL-4/ml. The resting T cells were then tested in a secondary proliferation assay to assess T cell responses to various house dust mite proteins and peptides. For assay, 2×10^4 resting T cells were cultured in 200 μl of RPMI-1640/5% AB serum for 3 days at 37° C. in the presence of 2×10^4 autologous Epstein-Barr virus transformed B cells (20,000 Rads) as antigen presenting cells with various concentrations of purified native Der p I or synthetic Der p I peptides. Each well then received 1 μCi tritiated thymidine for 16 hours. The counts incorporated were collected onto glass fiber filters and processed for liquid scintillation counting. Medium alone, acting as negative control, contained no allergen or peptide. The results of this experiment indicate that this particular patient responds with an S.I. of at least 2.0 to several peptides derived from the Der p I protein, including DP I-1, DP I-2, DP I-4, DP I-11, DP I-5, DP I-13, DP I-15, DP I-6.1, DP I-8, DP I-9, DP I-16, DP I-10 and DP I-17 (data not shown).
The above procedure was followed with a number of other house dust mite allergic individuals except a) in individual cases, the length of time of cultivation with IL-2 and IL-4 varied; b) in individual cases, the T cells were primed with either purified native (N) or recombinant (R) Der p I protein at either 20 μg/ml or 10 μg/ml; and c) in individual cases, x-irradiated (3500 Rads) autologous PBMC were used as antigen presenting cells in the secondary proliferation assay.
Individual results were considered positive and used if the individual responded to the Der p I protein and at least one peptide derived from Der p I at an S.I. of 2.0 or greater. The resting T cell lines primed with recombinant or native Der p I-stimulated PBMC were tested for reactivity to synthetic Der p I peptides. The maximum response for each peptide in a titration of the antigen is expressed as the T cell stimulation index (S.I.). The S.I. is the counts-per-minute (CPM) incorporated by cells in response to the peptide divided by the CPM incorporated by cells in medium only. […] However, only individual S.I. values greater than or equal to 2.0 (a response two-fold or greater over background), referred to herein as "positive" results, were used in calculating mean T cell stimulation indices for each peptide for the patient or group of patients tested. […] The T cell stimulation index is calculated by: [formula]
The bar represents the cumulative rank of the peptide response in the group of patients. To determine the cumulative rank, the 5 peptides with the highest S.I. in each individual were determined and assigned a numerical rank in descending order, with 5 representing the strongest response. The ranks for each peptide were then summed in the group of patients to determine the cumulative rank for the peptide. […] Given the percent positive and the mean T cell stimulation index, the positivity index (P.I.) for each peptide can be calculated.
The Der p I and Der f I proteins are very homologous (81% identity). Thus, experiments, similar to those of Example V, were carried out to determine the T cell responses of Der p I primed T cell lines when challenged with various Der p I peptides and substantially matching […].
The results of T cell studies using selected peptides derived from the Der p I, the Der f I, the Der p II and the Der f II proteins are shown in FIGS. 13-18a-d. […]

| Substance | T cell response to selected Der p I peptides |
| --- | --- |
| DP I-21.1: Der p I peptide (TNACSINGNAPAEIDLRQMRTVTPIRMQ) | respond significantly |
| DP I-23.1: Der p I peptide (EYIQHNGVVQESYYRYVAREQCRRPNAQ) | respond significantly |

Same assay, conditions: DP I-11/12 vs DP I-11.1/12.1

| Substance | difference in mean S.I. or percentage of positive responses, original vs additional (native sequence) peptides |
| --- | --- |
| DP I-11.1: Der p I peptide, native sequence (HRNQSLDLAEQELVDCASQHGC) | no significant difference |

Same assay, conditions: Der p I primed; 30 positive experiments; FIG. 15a

| Substance | T cell response to selected Der f I peptides |
| --- | --- |
| DF I-22.4: Der f I peptide (VAATESAYLAYRNTSLDLSEQELVDCASQ) | respond significantly |

Same assay, conditions: FIG. 15b; preferred peptides

| Substance | ranked sum of peptide responses |
| --- | --- |
| DP I-23.1: Der p I peptide (EYIQHNGVVQESYYRYVAREQCRRPNAQ) | highest ranked sum |

Same assay, conditions: mean S.I. × percent responders; 33 patients

| Substance | positivity index (P.I.) |
| --- | --- |
| DP I-21.1: Der p I peptide (TNACSINGNAPAEIDLRQMRTVTPIRMQ) | at least 150 |
| DP I-23.1: Der p I peptide (EYIQHNGVVQESYYRYVAREQCRRPNAQ) | at least 150 |

These substances were tested on T cell lines primed in vitro with Der p I (assay: T cell proliferation with fine map and modified Group I peptides (Example XIV)). Conditions: FIGS. 31a-b.
Assay type: cell-based, human
Experimental: (§1) Long term T cell lines were established by stimulation of 2×10^6 PBL/ml in bulk cultures of complete medium (RPMI-1640, 2 mM L-glutamine, 100 U/ml penicillin/streptomycin, 5×10^-5 M 2-mercaptoethanol, and 10 mM HEPES supplemented with 5% heat inactivated human AB serum) with 30 μg/ml of purified native Der p I or Der p II for 5-6 days at 37° C. in a humidified 5% CO2 incubator to select for house dust mite protein allergen reactive T cells. This amount of priming antigen was determined to be optimal for the activation of T cells from house dust mite allergic patients. Viable cells were purified by LSM centrifugation and cultured in complete medium supplemented with 5 units recombinant human IL-2/ml and 5 units recombinant human IL-4/ml for up to three weeks until the cells no longer responded to lymphokines and were considered "rested". The ability of the T cells to proliferate to selected peptides, purified Der p I or Der p II, or positive (PHA) controls or negative controls (medium only) was then assessed. For assay, 2×10^4 rested cells were restimulated in the presence of 2×10^4 autologous Epstein-Barr virus (EBV)-transformed B cells (prepared as described below) (gamma-irradiated with 25,000 RADS) or with 5×10^4 autologous PBMs (gamma-irradiated with 3500 RADS), with 2-50 μg/ml of purified native Der p I or Der p II in a volume of 200 μl complete medium in duplicate or triplicate wells in 96-well round bottom plates for 3 days. Each well then received 1 μCi tritiated thymidine for 16-20 hours. The counts incorporated were collected onto glass fiber filter mats and processed for liquid scintillation counting. […] The titrations were used to optimize the dose of peptides in T cell assays.
(§2) The maximum response in a titration of each peptide is expressed as the stimulation index (S.I.). The S.I. is the counts per minute (CPM) incorporated by cells in response to peptide, divided by the CPM incorporated by cells in medium only. […] The positive results were used in calculating mean stimulation indices for each peptide for the individual patient tested.
(§3) The above procedure was followed with 18 patients in the studies using peptides derived from Der p I and Der f I (FIGS. 31a-b), and 21 patients in the studies with Der p II peptides (FIGS. 32a-b). Individual patient results were used in calculating the mean S.I. for each peptide if the patient responded to the Der p I or Der p II protein at an S.I. of 2.0 or greater and the patient responded to at least one peptide derived from a house dust mite allergen at an S.I. f 2.0 or greater. A summary of positive experiments from the patients tested is shown in FIGS. 32a and 32b and FIGS. 33a and 33b. The bars represent the positivity index. […] In parenthesis above each bar are the mean stimulation indices for each peptide or protein for the group of patients tested.
(§4) Autologous EBV-transformed cell lines were γ-irradiated with 25,000 Rad and used as antigen presenting cells in secondary proliferation assays and secondary bulk stimulations. These EBV-transformed cell lines were made by incubating 5×10^6 PBL with 1 ml of B-59/8 Marmoset cell line (ATCC CRL1612, American Type Culture Collection, Rockville, Md.) conditioned medium in the presence of 1 μg/ml phorbol 12-myristate 13-acetate (PMA) at 37° C. for 60 minutes in 12×75 mm polypropylene round-bottom Falcon snap cap tubes (Becton Dickinson Labware, Lincoln Park, N.J.). These cells were then diluted to 1.25×10^6 cells/ml in RPMI-1640 as described above except supplemented with 10% heat-inactivated fetal bovine serum and cultured in 200 μl aliquots in flat bottom culture plates until visible colonies were detected. They were then transferred to larger wells until the cell lines were established.

| Substance | T cell response, Group I peptides |
| --- | --- |
| DF I-22.4: Der f I peptide (VAATESAYLAYRNTSLDLSEQELVDCASQ) | positive responses |
| DP I-11.1: Der p I peptide, native sequence (HRNQSLDLAEQELVDCASQHGC) | positive response |
| DP I-21.1: Der p I peptide (TNACSINGNAPAEIDLRQMRTVTPIRMQ) | positive response |
| DP I-22.4: Der p I peptide (VAATESAYLAHRNQSLDLAEQELVDCASQ) | positive responses |
| DP I-23.1: Der p I peptide (EYIQHNGVVQESYYRYVAREQCRRPNAQ) | positive T cell studies |

What follows are substances tested on T cell lines primed in vitro with Der p II (assay: T cell proliferation with fine map and modified Group II peptides (Example XIV)). Conditions: 21 T cell lines; Der p II primed; FIG. 32a.
Assay type: cell-based, human
Experimental: as §1, §2, §3, §4

| Substance | positive T cell responses, modified peptides |
| --- | --- |
| DP II-20.8: modified Der p II peptide (DQVDVKDCANHEIKKVLVPGCHGSEPK) | all 21 T cell lines responded positively |
| DP II-20.10: modified Der p II peptide (DQVDVKDCANHEIKKVLVPGCHGSEG) | all 21 T cell lines responded positively |
| DP II-20.11: modified Der p II peptide; printed with the same SEQ ID NO as DP II-20.9 (DQVDVKDCANHEIKKVLVPGCHGSE) | all 21 T cell lines responded positively |
| DP II-22.19: DKELEAVFEANQNTKTAKIEIKAD | all 21 T cell lines responded positively |
| DP II-22.22: DKELEAVFEANQNTKTAKIEIKK | all 21 T cell lines responded positively |
| DP II-22.23: DKELEAVFEANQNTKTAKIED | all 21 T cell lines responded positively |
| DP II-25.9: modified Der p II peptide (DKTVKVMGDDGVLACAIATHAKIRDKE) | all 21 T cell lines responded positively |

Same assay, conditions: FIGS. 32a-b

| Substance | T cell response, Group II peptides |
| --- | --- |
| DP II-20.10: modified Der p II peptide (DQVDVKDCANHEIKKVLVPGCHGSEG) | positive T cell studies |
| DP II-20.11: modified Der p II peptide; printed with the same SEQ ID NO as DP II-20.9 (DQVDVKDCANHEIKKVLVPGCHGSE) | positive T cell studies |
| DP II-22.19: DKELEAVFEANQNTKTAKIEIKAD | positive T cell studies |
| DP II-22.22: DKELEAVFEANQNTKTAKIEIKK | positive T cell studies |
| DP II-22.23: DKELEAVFEANQNTKTAKIED | positive T cell studies |
| DP II-25.9: modified Der p II peptide (DKTVKVMGDDGVLACAIATHAKIRDKE) | positive T cell studies |

What follows are substances tested on human IgE (assay: direct binding ELISA of IgE to mite allergen proteins and peptides). Conditions: plasma of 19 mite-allergic patients and pool of 18; Example XV.
Experimental: The coating antigens were removed and the wells are blocked with 0.5% gelatin in PBS, 300 μl/well for 2 hours at room temperature. Pooled human plasma (a mix of plasma samples from 20 patients that were skin test positive for commerical mite extract) was serially diluted with PBS-Tween 20 (PBS with 0.05% nonionic detergent Tween-20 Sigma, St. Louis, Mo.) and 100 μl/well a.backslash.was added and incubated overnight at 4° C. (plasma dilutions were tested in duplicate). The second antibody (biotinylated goat anti-Human IgE, 1:1000, Kirkegaard & Perry Laboratories Inc, Gaithersburg, Md.), was added at 100 μl/well for one hour at room temperature. This solution was removed and streptavidin-HRPO, 1:10000, (Southern Biotechnology Associates, Inc., Birmingham, Ala.) was then added at 100 μl/well for one hour at room temperature (all wells are washed three times with PBS-Tween between each incubation step). TMB Membrane Peroxidase Substrate system (Kirkegaard & Perry Laboratories) was freshly miced, and added at […]. The color was allowed to develop for 2-5 minutes. The reaction was stopped by the addition of […] of 1M phosphoric acid. Plates were read on a Microplate IL310 Autoreader (Biotech Instruments, Winooski, Vt.) with a 450 nm filter. The absorbance levels of duplicate wells were averaged. The order of coating antigens listed vertically in these figure legends corresponds in orDer from left to right to the coating antigens listed for each histogram.
The antigen preparation that was used as a positive control was a mixture of the four major biochemically purified mite allergens (term PMA for Purified Mite Allergen); Der f I, Der f II, Der p I and Der p II. The stock was generated at a concentration of 100 μgs of each protein per millimeter or 400 μgs total protein/ml. This preparation was used on each coated ELISA plate.

| Substance | IgE binding (ELISA), modified peptides |
| --- | --- |
| DP II-20.8: modified Der p II peptide (DQVDVKDCANHEIKKVLVPGCHGSEPK) | No plasma samples contained IgE |
| DP II-20.10: modified Der p II peptide (DQVDVKDCANHEIKKVLVPGCHGSEG) | No plasma samples contained IgE |
| DP II-20.11: modified Der p II peptide; printed with the same SEQ ID NO as DP II-20.9 (DQVDVKDCANHEIKKVLVPGCHGSE) | No plasma samples contained IgE |
| DP II-22.19: DKELEAVFEANQNTKTAKIEIKAD | No plasma samples contained IgE |
| DP II-22.22: DKELEAVFEANQNTKTAKIEIKK | No plasma samples contained IgE |
| DP II-22.23: DKELEAVFEANQNTKTAKIED | No plasma samples contained IgE |
| DP II-25.9: modified Der p II peptide (DKTVKVMGDDGVLACAIATHAKIRDKE) | No plasma samples contained IgE |
